Experimental data taken from patent EP1944295A1, “Non-racemic mixtures of (R)-N-piperidinyl-5-(4-chlorophenyl)1-(2,4-dichlorophenyl)-4,5-dihydro-1H-pyrazole-3-carboxamide and (S)-N-piperidinyl-5-(4-chlorophenyl)-1-(2,4-dichlorophenyl)-4,5-dihydro-1H-pyrazole-3-carboxamide” (Laboratorios del Dr. Esteve S.A., priority 2007, dated 2008).
pIC50: −log10 of the molar value. Where two headings read alike, the source gives them in different places.

Tests used:
[1] = Plasma glycerol and triacylglycerol assay; assay type: in vivo, female Wistar rats; conditions: obese rats, vs vehicle; for reduction of plasma glycerol levels / reduction of plasma triacylglycerol concentrations: 30 mg/kg po once daily for 28 days
Experimental: (§1) The experiment was performed on female Wistar rats (originally in the weight range 250-300 g). The rats were housed in pairs in polypropylene cages with solid floors and sawdust bedding at a temperature of 21±4°C and 55±20% humidity. Animals were maintained on a reverse phase light-dark cycle (lights off for 8 h from 09.30-17.30 h) during which time the room was illuminated by red light. Animals had free access to powdered high fat diet (VRF1 plus 20% lard), ground chocolate, ground peanuts and tap water at all times. The three different diets were contained in separate glass feeding jars with aluminum lids with a 3-4 cm hole cut in it to allow access to the food. Animals were housed in pairs for twelve weeks for the induction of obesity. Animals were then housed singly in polypropylene cages with wire grid floors to enable the food intake of each rat to be recorded. Polypropylene trays with cage pads were placed beneath each cage to detect any food spillage. Animals were accustomed to these new conditions (individual housing and the wire-grid floor cages) for at least 14 days before the start of the baseline readings.
(§2) Approximately a week before the start of the study, animals were weighed (to the nearest 0.1 g using an electronic top-pan balance) and allocated into […], each containing 9-10 animals. Following a 7 day baseline run-in period, during which the animals were dosed by the appropriate route (eg orally) once a day with vehicle (0.5% hydroxy-propyl-methylcellulose [HPMC]; 1 ml/kg) or the test drug, ie COMPOUND A (10 and 30 mg/kg po) and COMPOUND B (10 and 30 mg/kg po) once daily for 28 days.
Terminal blood samples via cardiac puncture were taken from the animals immediately after death into Sarstedt 4.5 ml lithium-heparin tubes (Cat No. 32.331). Tubes were then centrifuged at 1,500 g for 5 minutes at 4°C and the plasma removed and immediately frozen on dry ice (as 3 aliquots per sample in sealed Eppendorf tubes). Plasma samples were stored at -75°C until required for analysis. All determinations were performed on plasma samples that had been thawed only once.
Plasma triacylglycerol was determined by modification of a discrete assay kit (Sigma Triglyceride determination kit, Cat No. TR0100) to a 96-well format. The kit actually determines liberated glycerol following enzymic hydrolysis of triacylglycerol to free fatty acids and glycerol (1 mole glycerol per mole of triacylglycerol). For this reason, correction for the glycerol concentration originally present in the plasma is required. Plasma samples were, therefore, assayed in the absence (free plasma glycerol) or presence (total triacylglycerol) of lipoprotein lipase. Subtraction of free glycerol from total triacylglycerol concentration then derives the true triacylglycerol concentration.
A 2.5 mg/ml triolein equivalent glycerol standard was obtained from Sigma. The supplied Sigma mM conversion factor for this batch was 1.13 (ie 2.83 mM glycerol). A 10 mg/ml glycerol stock solution was prepared in saline and then diluted in saline to create a series of standard concentrations from 0.218 to 4.34 mM. Standards and plasma samples (undiluted) were pipetted into the 96-well plates as 10 µl additions in duplicate. Assay plates and reagents were preheated at 37°C and the reaction started by adding 200 µl of either the glycerol or total triacylglycerol reagent (reconstituted as per manufacturer's protocol) followed by incubation at 37°C for 5 minutes after which optical density at 540 nm was determined using a Molecular Devices VERSAmax tunable microplate reader. Optical density readings were then transferred to GraphPad Prism and unknown values extrapolated from a linear regression fit to the standard curve. The assay was linear up to the highest glycerol standard employed (4.34 mM). Subtraction of the glycerol concentration in the plasma samples from the total triacylglycerol concentration derived the true triacylglycerol concentration.

[2] = Feeding study: body weight of obese rats with access to highly palatable cafeteria diet; assay type: in vivo, female Wistar rats; conditions: after 28 days of treatment, dietary-induced obese rats
Experimental: as §1, §2
Food intake and body weight were measured once daily. Variations in body weight and energy levels of the different types of food were accounted for by expressing the food intake results in terms of kJ/kg rat weight.
Statistical comparisons between the body weights and daily food intakes of the different treatment groups have been made by analysis of covariance followed by Dunnett's test to compare each treatment group with the vehicle-treated controls. For the body weight data (body weights each day), the weights of the animals on Day 1 (ie immediately before the first drug treatment) were used as the covariate. Thus, means were adjusted for differences in body weight between the groups on Day 1 and standard errors of the mean (SEM) were calculated from the residuals of the statistical model. All mean body weight values on Day 1 are identical (and SEM are therefore zero) because the analysis of covariance adjusts them all to equal the 'grand mean' of the values of this day.

Herg channel = Herg channel (Homo sapiens, UniProt Q12809); test: Herg channel affinity (statement only, no method); assay type: binding; conditions: low risk of prolongation of the QT-interval expected
Herg channel, sequence (Q12809 whole entry): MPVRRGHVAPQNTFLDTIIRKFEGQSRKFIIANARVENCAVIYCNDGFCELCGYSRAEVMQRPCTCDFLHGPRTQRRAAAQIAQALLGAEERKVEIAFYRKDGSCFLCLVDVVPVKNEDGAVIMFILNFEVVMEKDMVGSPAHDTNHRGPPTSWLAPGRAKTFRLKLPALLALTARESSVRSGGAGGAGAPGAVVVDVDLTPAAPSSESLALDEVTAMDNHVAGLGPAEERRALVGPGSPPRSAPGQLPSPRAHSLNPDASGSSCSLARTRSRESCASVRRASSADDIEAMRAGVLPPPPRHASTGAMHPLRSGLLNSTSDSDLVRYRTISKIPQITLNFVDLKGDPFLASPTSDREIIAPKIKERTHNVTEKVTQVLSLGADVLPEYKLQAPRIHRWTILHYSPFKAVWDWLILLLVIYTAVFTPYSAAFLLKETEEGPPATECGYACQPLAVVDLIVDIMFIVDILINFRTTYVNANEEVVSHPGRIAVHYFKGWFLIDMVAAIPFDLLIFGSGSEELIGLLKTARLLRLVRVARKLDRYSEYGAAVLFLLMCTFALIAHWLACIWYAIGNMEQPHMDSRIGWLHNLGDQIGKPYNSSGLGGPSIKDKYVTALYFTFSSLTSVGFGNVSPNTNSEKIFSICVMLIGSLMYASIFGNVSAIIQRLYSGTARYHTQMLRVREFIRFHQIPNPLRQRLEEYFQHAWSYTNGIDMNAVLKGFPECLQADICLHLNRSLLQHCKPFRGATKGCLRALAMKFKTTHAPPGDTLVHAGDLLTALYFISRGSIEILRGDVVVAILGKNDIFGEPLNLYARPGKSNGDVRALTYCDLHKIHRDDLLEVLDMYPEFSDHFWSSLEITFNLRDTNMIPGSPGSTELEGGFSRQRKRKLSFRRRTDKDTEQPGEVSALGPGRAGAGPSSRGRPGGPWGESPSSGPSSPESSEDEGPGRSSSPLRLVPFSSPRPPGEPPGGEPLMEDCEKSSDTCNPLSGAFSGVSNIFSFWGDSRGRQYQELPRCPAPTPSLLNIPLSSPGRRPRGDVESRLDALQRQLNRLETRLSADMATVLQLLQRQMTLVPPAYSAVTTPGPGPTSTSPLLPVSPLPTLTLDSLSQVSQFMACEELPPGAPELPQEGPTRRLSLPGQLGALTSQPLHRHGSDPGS

rat CB1 receptors = biological target: T1, rat CB1 receptors (Rattus norvegicus, UniProt P20272); test: Binding affinity to CB1 receptor, competitive binding with [3H]-CP 55,940 in rat cerebellum membranes; conditions: for pIC50: 1 nM [3H]-CP 55,940, read-out: IC50
T1 construct: cerebella from male Wistar rats (250-300g) were carefully dissected on ice and homogenates were prepared; from tissue; host or cells: rat cerebellum membranes (male Wistar rats)
T1 sequence (P20272 whole entry): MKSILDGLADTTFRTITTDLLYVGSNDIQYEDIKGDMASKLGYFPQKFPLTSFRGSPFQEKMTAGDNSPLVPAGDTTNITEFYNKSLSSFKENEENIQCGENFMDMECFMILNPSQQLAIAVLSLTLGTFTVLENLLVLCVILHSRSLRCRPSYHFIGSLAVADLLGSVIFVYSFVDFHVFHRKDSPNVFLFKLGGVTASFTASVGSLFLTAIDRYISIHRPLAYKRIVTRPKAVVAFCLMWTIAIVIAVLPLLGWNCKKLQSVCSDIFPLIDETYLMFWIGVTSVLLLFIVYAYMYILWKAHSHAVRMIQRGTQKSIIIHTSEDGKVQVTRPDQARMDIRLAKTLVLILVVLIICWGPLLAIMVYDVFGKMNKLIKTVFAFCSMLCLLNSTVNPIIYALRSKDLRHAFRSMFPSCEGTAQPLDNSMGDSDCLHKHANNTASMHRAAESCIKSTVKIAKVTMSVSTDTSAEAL
Experimental: Binding affinity to CB1 receptor was evaluated according to the method of Govaerts et al (2004) with the following modifications. Briefly, cerebella from male Wistar rats (250-300g) were carefully dissected on ice and homogenates were prepared in cold 50 mM Tris-HCl, 5 mM MgCl2, 1 mM EDTA, 0.25 M sucrose, pH 7.4 with a Potter-Heljheim homogeniser and the suspension was centrifuged at 1,000 x g for 5 minutes. The supernatants were collected and centrifuged at 50,000 x g for 15 min. The resulting pellets were resuspended in Tris-HCl buffer without sucrose, homogenized and incubated for 15 min at 37°C in an orbital shaker bath and centrifuged again at 50,000 x g for 15 min. Pellets were weighed, resuspended in Tris-HCl buffer without sucrose, homogenized with an Ultraturrax homogeniser at 13,500 rpm for 3 x 5 seconds and aliquoted in 0.9 ml volumes in Eppendorf tubes. Aliquots were centrifuged at 20,800 x g for 5 minutes, supernatants discarded and pellets were frozen at -80°C until use. Total protein concentration was determined using a Bio-Rad commercial assay base on the Lowry method. Competitive binding experiments were performed in presence of 1 nM [^3H]-CP 55,940 in siliconized glass tubes containing 100 µg protein/tube resuspended in 1 ml final volume of 50 mM Tris-HCl, 5 mM MgCl2, 1 mM EDTA, 0.5% (w/v) bovine serum albumin, pH 7.4. Competitors were present at various concentrations and the non-specific binding was determined in the presence of 10 µM HU-210. After 1 hour incubation at 30°C, the suspension was rapidly filtered through 0.5% PEI pre-treated GF/B fiber filters on a 96-well harvester and washed 3 times with 3ml ice-cold binding buffer without bovine serum albumin. Radioactivity on filters was measured with Wallac Winspectral 1414 counter by liquid scintillation in 6 ml Ecoscint H (National Diagnostics, U.K.). Assays were made in triplicate.
Binding data were analyzed by non-linear regression with the software GraphPad Prism Version 3.03.

[3] = Determination of carcass fat content (Soxhlet); assay type: in vivo, female Wistar rats; conditions: obese rats, g per rat
Experimental: as §1, with “Polypropylene trays with cage pads were placed beneath each cage to detect any food spillage.” left out, “readings. […]” for “readings.”
Percentage fat in the freeze-dried sample was calculated as follows: % fat = [100×(final cup weight-initial cup weight)]/sample weight [formula]
Percentage fat in the original sample was calculated using the % water as follows: % fat in original sample = % fat × [(100-% water)/100] […]

Plasma leptin assay = assay type: in vivo, female Wistar rats; conditions: obese rats
Experimental: as §1, with “Polypropylene trays with cage pads were placed beneath each cage to detect any food spillage.” left out, “readings. […]” for “readings.”
Plasma leptin concentration was determined using Assay Designs rat leptin enzyme immunometric assay kits (Cat No. 900-015) according to the manufacturer's regular protocol. […] Optical density at 450 nm was determined using a Molecular Devices VERSAmax tunable microplate reader and readings transferred to GraphPad Prism. […]

Plasma NEFA assay = assay type: in vivo, female Wistar rats; conditions: 30 mg/kg po once daily for 28 days, obese rats
Experimental: as §1, with “Animals were housed in pairs for twelve weeks for the induction of obesity.” left out, “Polypropylene trays with cage pads were placed beneath each cage to detect any food spillage.” left out, “readings. […]” for “readings.”
Non-esterified (or free) fatty acids (NEFA) were determined by modification of a commercial clinical analyser assay kit (Wako NEFA C ACS-ACOD method) to a 96-well format. […] After exactly 10 minutes, 150 µl of reagent B was added and the plate incubated for a further 10 minutes after which optical density at 540 nm was determined using a Molecular Devices VERSAmax tunable microplate reader. […]

[4] = 10 mg/kg po once daily for 28 days
[5] = 30 mg/kg po once daily for 28 days

Row | SMILES | effect on plasma glycerol levels [1, 4] | effect on plasma triacylglycerol concentrations [1, 4] | reduction of plasma glycerol levels [1] | reduction of plasma triacylglycerol concentrations [1] | % reduction of body weight compared to the control group on Day 29 ([2]; 10 mg/kg po once daily) | % reduction of body weight compared to the control group on Day 29 ([2]; 30 mg/kg po once daily) | Herg channel affinity (Herg channel) | pIC50 (rat CB1 receptors) | IC50 (rat CB1 receptors; 1 nM [3H]-CP 55,940, read-out: pIC50 (converted)) | decrease in absolute body fat compared to the vehicle-treated control group [3, 4] | decrease in absolute body fat compared to the vehicle-treated control group [3, 5] | decrease of plasma leptin levels compared to the vehicle-treated control group (Plasma leptin assay; [4]) | decrease of plasma leptin levels compared to the vehicle-treated control group (Plasma leptin assay; [5]) | decrease of plasma NEFA levels compared to the vehicle-treated control group (Plasma NEFA assay)
1 | O=C(NN1CCCCC1)C1=NN(c2ccc(Cl)cc2Cl)[C@@H](c2ccc(Cl)cc2)C1 [Compound A, (R)-N-piperidinyl-5-(4-chlorophenyl)-1-(2,4-dichlorophenyl)-4,5-dihydro-1H-pyrazole-3-carboxamide] | no significant effect | no significant effect | 33.6% | 42% | 12.0% | 19.0% | relatively weak | 7.79 | 0.0219 µM | – | – | – | – | –
2 | O=C(NN1CCCCC1)C1=NN(c2ccc(Cl)cc2Cl)[C@H](c2ccc(Cl)cc2)C1 [Compound B, (S)-N-piperidinyl-5-(4-chlorophenyl)-1-(2,4-dichlorophenyl)-4,5-dihydro-1H-pyrazole-3-carboxamide] | – | – | 38.9% | 52.1% | 4.0% | 7.1% | – | 6.09 | – | 26.2 g | 11.1 g | 13.7% | 26.2% | 24.4%
